Molecules are shown by their SMILES.

In general, IC50 refers to the concentration that inhibits the measured activity by half.

Series [1] in a line: Toxicity in BALB/c nude mouse xenografted with human HCT116 cells assessed as body weight loss at 25 to 50 mg/kg, ip administered every 3 days for 21 days measured on day 7 relative to control. Format: organism-based, HCT-116. The settings on record: in vivo. Background: In xenograft studies the graft and the host belong to different species.
For series [2], the system named is HCT-116. Description: Antiproliferative activity against human HCT116 cells assessed as reduction in cell growth measured after 48 hrs by CCK8 assay. The format is functional, cell-based. The conditions noted are these: HCT-116, 48 h. A general note: Tetrazolium assays rely on reduction of a dye to a coloured formazan, in cell work by metabolically active cells.

Series [3] has as its system A549. Description: Antiproliferative activity against human A549 cells assessed as reduction in cell growth measured after 48 hrs by CCK8 assay. Format: functional, cell-based. The conditions noted are these: A549, 48 h.
The next series concerns SJSA-1. Description: Antiproliferative activity against human SJSA1 cells assessed as reduction in cell growth measured after 48 hrs by CCK8 assay. The settings on record: SJSA-1, 48 h. Format: functional, cell-based.
A further series deals with HL-60. Description: Antiproliferative activity against human HL60 cells assessed as reduction in cell growth measured after 48 hrs by CCK8 assay. Format: functional, cell-based. The settings on record: HL-60, 48 h.
Series [4] concerns the target T1, Peptide deformylase, mitochondrial (Homo sapiens) (UniProt Q9HBH1).
T1 sequence (whole entry): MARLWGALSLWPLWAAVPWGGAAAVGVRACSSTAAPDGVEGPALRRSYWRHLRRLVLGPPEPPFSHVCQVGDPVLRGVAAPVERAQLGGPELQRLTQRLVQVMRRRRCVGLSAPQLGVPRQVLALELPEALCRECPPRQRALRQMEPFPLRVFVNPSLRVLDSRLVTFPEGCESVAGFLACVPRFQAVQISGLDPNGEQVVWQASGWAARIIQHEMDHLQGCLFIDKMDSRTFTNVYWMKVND
Description: Inhibition of PDF in human MCF7 cells assessed as decrease in mtDNA encoded COX1 protein level measured after 48 hrs by Western blot analysis. The format is cell-based. In general terms: A western blot detects proteins with antibodies after separation by electrophoresis.

Series [5] concerns A549. Description: Induction of apoptosis in human A549 cells assessed as late apoptotic cells at 40 uM measured after 24 hrs by Annexin V-FITC/propidium iodide staining based FACSClibur flow cytometry analysis (reference value: 2.32 %). Format: functional.
Series [6] concerns A549. Description: Induction of apoptosis in human A549 cells assessed as live cells at 40 uM measured after 48 hrs by Annexin V-FITC/propidium iodide staining based FACSClibur flow cytometry analysis (reference value: 95.5 %). The format is functional.
Series [7] concerns A549. Description: Induction of apoptosis in human A549 cells assessed as early apoptotic cells at 40 uM measured after 48 hrs by Annexin V-FITC/propidium iodide staining based FACSClibur flow cytometry analysis (reference value: 0.40 %). The format is functional.
The target of the next series is Histone deacetylase 1 (Homo sapiens, UniProt Q13547). Description: Inhibition of HDAC1 (unknown origin) using Boc-Lys(Ac)-pNA as substrate preincubated for 20 mins followed by substrate addition and further incubated for 90 mins by fluorescence assay.
Histone deacetylase 1, sequence (Q13547 whole entry): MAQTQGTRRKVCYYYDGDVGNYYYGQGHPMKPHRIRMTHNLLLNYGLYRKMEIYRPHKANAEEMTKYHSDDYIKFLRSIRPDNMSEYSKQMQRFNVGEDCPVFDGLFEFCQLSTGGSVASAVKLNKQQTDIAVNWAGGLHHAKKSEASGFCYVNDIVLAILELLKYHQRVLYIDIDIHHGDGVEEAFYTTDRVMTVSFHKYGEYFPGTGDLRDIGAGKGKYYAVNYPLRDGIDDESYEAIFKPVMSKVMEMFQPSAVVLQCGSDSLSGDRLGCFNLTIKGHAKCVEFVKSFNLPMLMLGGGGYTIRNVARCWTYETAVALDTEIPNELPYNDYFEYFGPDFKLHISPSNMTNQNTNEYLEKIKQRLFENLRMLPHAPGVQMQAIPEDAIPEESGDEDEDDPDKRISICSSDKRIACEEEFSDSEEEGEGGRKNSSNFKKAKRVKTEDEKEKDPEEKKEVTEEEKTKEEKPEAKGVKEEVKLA
Series [8] is described as follows: Drug concentration in plasma of Sprague-Dawley rat at 2 mg/kg, iv measured after 5 mins by LC-MS/MS analysis. The format is ADME, organism-based.
Series [9] in a line: Apparent volume of distribution at steady state in Sprague-Dawley rat at 2 mg/kg, iv measured up to 24 hrs by LC-MS/MS analysis. Format: ADME, organism-based. The conditions noted are these: in vivo, read-out: Vdss(app).
Series [10] can be described thus: Oral bioavailability in Sprague-Dawley rat at 20 mg/kg measured up to 24 hrs by LC-MS/MS analysis. Format: ADME, organism-based. The conditions noted are these: in vivo.
Series [11] concerns HCT-116. Description: Antitumor activity against human HCT116 cells xenografted in BALB/c nude mouse assessed as tumor growth inhibition at 25 mg/kg, ip administered every 3 days for 21 days and measured every second day for 21 days during compound dosing by digital caliper method relative to control. The format is functional. The conditions noted are these: HCT-116, ip, read-out: TGI.

A short description of series [12]: Toxicity in BALB/c nude mouse xenografted with human HCT116 cells assessed as adverse effect at 25 to 50 mg/kg, ip administered every 3 days for 21 days. Format: organism-based, HCT-116. The settings on record: in vivo.
Series [13] is described as follows: Selectivity index, ratio of IC50 for human MCF10A cells assessed as reduction in cell growth measured after 48 hrs by CCK8 assay to IC50 for human HCT116 cells assessed as reduction in cell growth measured after 48 hrs by CCK8. The format is toxicity. The settings on record: MCF10A cells versus HCT116 cells, read-out: Ratio IC50.
Series [14] in a line: Selectivity index, ratio of IC50 for human MCF10A cells assessed as reduction in cell growth measured after 48 hrs by CCK8 assay to IC50 for human SJSA1 cells assessed as reduction in cell growth measured after 48 hrs by CCK8. The format is toxicity. The settings on record: MCF10A cells versus SJSA1 cells, read-out: Ratio IC50.
Series [15] in a line: Selectivity index, ratio of IC50 for human MCF10A cells assessed as reduction in cell growth measured after 48 hrs by CCK8 assay to IC50 for human HL60 cells assessed as reduction in cell growth measured after 48 hrs by CCK8. The format is toxicity. The settings on record: MCF10A cells versus HL60 cells, read-out: Ratio IC50.
Series [16] can be described thus: Toxicity in KM mouse assessed as weight loss at 262.1 to 640 mg/kg, ip administered as single dose measured 3 times per week for 14 days. The settings on record: in vivo, 336 h. The format is organism-based.
A short description of series [17]: Toxicity in KM mouse assessed as behavioral changes at <262 mg/kg, ip administered as single dose measured daily for 14 days. The settings on record: in vivo, 336 h. Format: organism-based.

For `O=C(C[C@@H](CC1CCCC1)C(=O)N1CC2(CC2)C[C@H]1c1nc(-c2ccc(F)cc2C(F)(F)F)no1)NO`, the Activity in series [1] is given as 5%; in the series on A549 [5] it was 7.07%; with A549 [6], 80.9%; in the series on A549 [7], 12.6%; in [12] it was “Non-Toxic”; in series [16] it was “Toxic”. In addition, the Activity result in series [17] is on record as “Non-Toxic”. Also, the IC50 was 1980 nM with HCT-116 [2]; 2580 nM in the series with A549 [3]; 1940 nM in the series on SJSA-1; 2020 nM in the series with HL-60; greater than 10000 nM against Histone deacetylase 1. In addition, in series [4], the inhibition entry is “Dose-dependent effect”. In series [8], this molecule registered a concentration at 5 min of 136 ng/mL. In addition, the Vd in [9] was 5.26 L/kg. In series [10], this molecule gave an F of 23.5%. Besides, the inhibition in vivo at 25 mg/kg with HCT-116 [11] came to 64%. Besides, the selectivity ratio at 48 h in series [13], in [14] and in series [15] was 9 throughout.

(Values after ChEMBL document CHEMBL4616720 (J Med Chem, 2020).)
